Patent US20230081426A1, “COMPOUNDS AND METHODS FOR KRAS MODULATION AND INDICATIONS THEREFOR” (Plexxikon Inc., priority 2020, published 2023)

How the values were obtained:
[1] = target: T1, G12D-mutant human KRAS (amino acid residues 1-188) (Homo sapiens, UniProt P01116, G12D); test: KRAS Binding Disruption Assay (AlphaScreen; biotinylated KRpep-2d analogue or RAF1-RBD), G12D; details: KRAS G12D; geometric mean; read-out: KRAS GMean IC50 (uM) MUTATION: G12D
T1 construct: G12D or G12C-mutant human KRAS (amino acid residues 1-188) with FLAG tag; made in house; host or cells: E. coli
Outline: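 Mutant KRAS (5-20 nM) incubated 1 h at 25° C with test compound and 5-20 nM biotinylated KRpep-2d analogue or RAF1-RBD in 20 mM HEPES pH 7.5, 100 mM NaCl, 5 mM MgCl2, 0.01% Tween-20, 0.01% BSA.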

[2] = target: T2, G12V-mutant human KRAS (amino acid residues 1-188) (Homo sapiens, UniProt P01116, G12V); test: KRAS Binding Competition Assay (AlphaScreen; biotinylated KRpep-2d analogue), G12V; details: geometric mean, read-out: KRAS GMean IC50 (uM) MUTATION: G12V
T2 construct: G12V-mutant human KRAS (amino acid residues 1-188) with FLAG tag was purified from E. coli; made in house; host or cells: E. coli

| IC50 [1] [µM] | IC50 [2] [µM] | Compound |
| --- | --- | --- |
| 0.0001 to 10 | 10 to 100 | CN1CCC[C@H]1COc1nc(N2C[C@H]3CC[C@@H](C2)N3)c2ccc(-c3c[nH]c4ccccc34)c(F)c2n1 [P-0293, 4-((1R,5S)-3,8-diazabicyclo[3.2.1]octan-3-yl)-8-fluoro-7-(1H-indol-3-yl)-2-(((S)-1-methylpyrrolidin-2-yl)methoxy)quinazoline] |
| 10 to 100 | 10 to 100 | CN1CCC[C@H]1COc1nc(N2[C@@H]3CC[C@H]2CN(C(=O)CNS(N)(=O)=O)C3)c2ccc(-c3cc(O)cc4ccccc34)cc2n1 [P-0316, N-(2-((1R,5S)-8-(7-(3-hydroxynaphthalen-1-yl)-2-(((S)-1-methylpyrrolidin-2-yl)methoxy)quinazolin-4-yl)-3,8-diazabicyclo[3.2.1]octan-3-yl)-2-oxoethyl)aminosulfonamide] |
| 0.0001 to 10 | 0.0001 to 10 | CN1CCCC(Oc2nc(N3[C@@H]4CC[C@H]3CNC4)c3ccc(-c4cc(O)cc5ccccc45)cc3n2)C1 (stereo partly drawn) [P-0239, 4-(4-((1R,5S)-3,8-diazabicyclo[3.2.1]octan-8-yl)-2-((1-methylpiperidin-3-yl)oxy)quinazolin-7-yl)naphthalen-2-ol] |
| 10 to 100 | 10 to 100 | CN1CCC[C@H]1COc1nc(N2[C@@H]3CC[C@H]2CN(C(=O)[C@@H]2C[C@@H](O)CN2)C3)c2ccc(-c3cc(O)cc4ccccc34)cc2n1 [P-0204, ((1R,5S)-8-(7-(3-hydroxynaphthalen-1-yl)-2-(((S)-1-methylpyrrolidin-2-yl)methoxy)quinazolin-4-yl)-3,8-diazabicyclo[3.2.1]octan-3-yl)((2S,4R)-4-hydroxypyrrolidin-2-yl)methanone] |
| 0.0001 to 10 | 10 to 100 | CC(C)(COc1nc(N2C[C@H]3CC[C@@H](C2)N3)c2ccc(-c3cc(O)cc4ccccc34)c(F)c2n1)C(N)=O [P-0620, 3-((4-((1R,5S)-3,8-diazabicyclo[3.2.1]octan-3-yl)-8-fluoro-7-(3-hydroxynaphthalen-1-yl)quinazolin-2-yl)oxy)-2,2-dimethylpropanamide] |
| 10 to 100 | 10 to 100 | CN1CCC[C@H]1COc1nc(N2C[C@H]3CC[C@@H](C2)N3)c2ccc(-c3c(Cl)ccc4[nH]ccc34)cc2n1 [P-0236, 4-((1R,5S)-3,8-diazabicyclo[3.2.1]octan-3-yl)-7-(5-chloro-1H-indol-4-yl)-2-(((S)-1-methylpyrrolidin-2-yl)methoxy)quinazoline] |
| 0.0001 to 10 | 10 to 100 | Oc1cc(-c2ccc3c(N4C[C@H]5CC[C@@H](C4)N5)nc(OCC45CCCCN4CCCC5)nc3c2)c2ccccc2c1 [P-0095, 4-(4-((1R,5S)-3,8-diazabicyclo[3.2.1]octan-3-yl)-2-((octahydro-9aH-quinolizin-9a-yl)methoxy)quinazolin-7-yl)naphthalen-2-ol] |
| 100 to 1000 | 10 to 100 | CN1CCC[C@H]1COc1nc(N2[C@@H]3CC[C@H]2CNC3)c2ccc(-c3cccc(C(N)=O)n3)cc2n1 [P-0148, 6-(4-((1R,5S)-3,8-diazabicyclo[3.2.1]octan-8-yl)-2-(((S)-1-methylpyrrolidin-2-yl)methoxy)quinazolin-7-yl)picolinamide] |
| 0.0001 to 10 | 0.0001 to 10 | O=C(O)CC(=O)N1[C@@H]2CC[C@H]1CN(c1nc(OCC34CCCN3CCC4)nc3c(F)c(-c4cc(O)cc5ccccc45)ccc13)C2 [P-0353, 3-((1R,5S)-3-(8-fluoro-7-(3-hydroxynaphthalen-1-yl)-2-((tetrahydro-1H-pyrrolizin-7a(5H)-yl)methoxy)quinazolin-4-yl)-3,8-diazabicyclo[3.2.1]octan-8-yl)-3-oxopropanoic acid] |
| 10 to 100 | 10 to 100 | CN1CCC[C@H]1COc1nc(N2C[C@H]3CC[C@@H](C2)N3C(=O)CC2CCNC2=O)c2ccc(-c3cc(O)cc4ccccc34)cc2n1 (stereo partly drawn) [P-0371, 3-(2-((1R,5S)-3-(7-(3-hydroxynaphthalen-1-yl)-2-(((S)-1-methylpyrrolidin-2-yl)methoxy)quinazolin-4-yl)-3,8-diazabicyclo[3.2.1]octan-8-yl)-2-oxoethyl)pyrrolidin-2-one] |
| 10 to 100 | 10 to 100 | CN1CCC[C@H]1COc1nc(N2[C@@H]3CC[C@H]2CNC3)c2ccc(-c3c(F)ccc(N)c3F)cc2n1 [P-0288, 3-(4-((1R,5S)-3,8-diazabicyclo[3.2.1]octan-8-yl)-2-(((S)-1-methylpyrrolidin-2-yl)methoxy)quinazolin-7-yl)-2,4-difluoroaniline] |
| 0.0001 to 10 | 0.0001 to 10 | CN1CC[C@@H](NS(=O)(=O)N2[C@@H]3CC[C@H]2CN(c2nc(OC[C@@H]4CCCN4C)nc4c(F)c(-c5cc(O)cc6ccccc56)ccc24)C3)C1 [P-0376, (1R,5S)-3-(8-fluoro-7-(3-hydroxynaphthalen-1-yl)-2-(((S)-1-methylpyrrolidin-2-yl)methoxy)quinazolin-4-yl)-N-((R)-1-methylpyrrolidin-3-yl)-3,8-diazabicyclo[3.2.1]octane-8-sulfonamide] |
| 0.0001 to 10 | 0.0001 to 10 | Fc1c(-c2c[nH]c3cccc(C(F)F)c23)ccc2c(N3C[C@H]4CC[C@@H](C3)N4)nc(OCC34CCCN3CCC4)nc12 [P-0625, 4-((1R,5S)-3,8-diazabicyclo[3.2.1]octan-3-yl)-7-(4-(difluoromethyl)-1H-indol-3-yl)-8-fluoro-2-((tetrahydro-1H-pyrrolizin-7a(5H)-yl)methoxy)quinazoline] |
| 0.0001 to 10 | 0.0001 to 10 | CN1CCC[C@H]1COc1nc(N2C[C@H]3CC[C@@H](C2)N3CC(N)=O)c2ccc(-c3cc(O)cc4ccccc34)c(F)c2n1 [P-0144, 2-((1R,5S)-3-(8-fluoro-7-(3-hydroxynaphthalen-1-yl)-2-(((S)-1-methylpyrrolidin-2-yl)methoxy)quinazolin-4-yl)-3,8-diazabicyclo[3.2.1]octan-8-yl)acetamide] |
| 0.0001 to 10 | 0.0001 to 10 | C[C@@H](O)C(=O)N1[C@@H]2CC[C@H]1CN(c1nc(OC[C@@H]3CCCN3C)nc3c(F)c(-c4cc(O)cc5ccccc45)ccc13)C2 [P-0395, (R)-1-((1R,5S)-3-(8-fluoro-7-(3-hydroxynaphthalen-1-yl)-2-(((S)-1-methylpyrrolidin-2-yl)methoxy)quinazolin-4-yl)-3,8-diazabicyclo[3.2.1]octan-8-yl)-2-hydroxypropan-1-one] |
| 10 to 100 | 100 to 1000 | CN1CCC[C@H]1COc1nc(N2C[C@H]3CC[C@@H](C2)N3)c2ccc(-c3c[nH]c4ccc(C#N)cc34)c(F)c2n1 [P-0313, 3-(4-((1R,5S)-3,8-diazabicyclo[3.2.1]octan-3-yl)-8-fluoro-2-(((S)-1-methylpyrrolidin-2-yl)methoxy)quinazolin-7-yl)-1H-indole-5-carbonitrile] |
| 0.0001 to 10 | 10 to 100 | CN1CCC[C@H]1COc1nc(N2C[C@H]3CC[C@@H](C2)N3)c2ccc(-c3c(O)ccc4ccccc34)cc2n1 [P-0338, 1-(4-((1R,5S)-3,8-diazabicyclo[3.2.1]octan-3-yl)-2-(((S)-1-methylpyrrolidin-2-yl)methoxy)quinazolin-7-yl)naphthalen-2-ol] |
| 0.0001 to 10 | 0.0001 to 10 | CN1CC[C@@H](NS(=O)(=O)N2[C@@H]3CC[C@H]2CN(c2nc(OCC45CCCN4CCC5)nc4c(F)c(-c5cc(O)cc6ccccc56)ccc24)C3)C1 [P-0282, (1R,5S)-3-(8-fluoro-7-(3-hydroxynaphthalen-1-yl)-2-((tetrahydro-1H-pyrrolizin-7a(5H)-yl)methoxy)quinazolin-4-yl)-N-((R)-1-methylpyrrolidin-3-yl)-3,8-diazabicyclo[3.2.1]octane-8-sulfonamide] |
